Legend:
[1] = Antitumor activity against human CL1-5 cells xenografted in mouse assessed as disease cure rate; type: functional
HT-29 [2] = experiment: Cytotoxicity in human HT-29 cells assessed as reduction in cell viability; type: functional, cell-based
HT-29 [3] = experiment: Potency index, ratio of IC50 for paclitaxel to IC50 for test compound for cytotoxicity in human HT-29 cells; type: functional

Question: For Nc1cccc2nc3c(cc12)Cn1c-3cc2c(c1=O)COC(=O)[C@]2(O)CC(=O)OCc1ccc(O[C@@H]2O[C@H](C(=O)O)[C@@H](O)[C@H](O)[C@H]2O)c([N+](=O)[O-])c1, which Activity [1] is on record?
Answer: The Activity was 70 - 85%.

Question: With CC(=O)O[C@H]1C(=O)[C@@]2(C)[C@H]([C@H](OC(=O)c3ccccc3)[C@]3(O)C[C@H](OC(=O)[C@H](OC(=O)OCCN(C)C(=O)OCc4ccc(O[C@@H]5O[C@H](C(=O)O)[C@@H](O)[C@H](O)[C@H]5O)cc4)[C@@H](NC(=O)c4ccccc4)c4ccccc4)C(C)=C1C3(C)C)[C@]1(OC(C)=O)CO[C@@H]1C[C@@H]2O as the compound, how does the IC50 (HT-29 [2]) read?
Answer: Its IC50 is 26 nM.

Question: And the “Ratio IC50” value (HT-29 [3])?
Answer: The value was 164.
